Reference: ChEMBL document CHEMBL1201862, “PubChem BioAssay data set” (2004)
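Test compounds were applied to cells in 96-well plates for 48 hours at 5 doses. GI50: concentration for 50% inhibition of growth.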 The source made the active and inactive calls. Cut-off read from the data, not from the text of the source: active = GI50 up to about 1.1 µM and inactive = higher.

What was measured:
Test in all cases: DTP human tumour cell line panel, 48 h
A549 = tested on: A549
CAKI-1 = tested on: CAKI-1
CCRF-CEM = tested on: CCRF-CEM
DU-145 = tested on: DU-145
HCC 2998 = tested on: HCC 2998
HCT-116 = tested on: HCT-116
M14 = tested on: M14
MCF7 = tested on: MCF7
MDA-MB-231 = tested on: MDA-MB-231
MDA-MB-435 = tested on: MDA-MB-435
NCI/ADR-RES = tested on: NCI/ADR-RES
OVCAR-4 = tested on: OVCAR-4
RPMI-8226 = tested on: RPMI-8226
SK-MEL-2 = tested on: SK-MEL-2
SK-MEL-5 = tested on: SK-MEL-5
SNB-75 = tested on: SNB-75
UO-31 = tested on: UO-31
A498 = tested on: A498
SK-MEL-28 = tested on: SK-MEL-28
SR = tested on: SR

Q: For `CCOC(=O)/C1=C(\C)N(c2ccc(C)cc2)C(=O)c2ccccc2C(=O)c2c(O)ccc(O)c21`, which GI50 (A549) is on record?
A: The GI50 was 26.6 µM (inactive).

Q: What about the GI50 (CAKI-1) of the same compound?
A: Its GI50 is 20 µM (inactive).

Q: What about the GI50 (CCRF-CEM) of the same compound?
A: Its GI50 is 20.6 µM (inactive).

Q: And the GI50 (DU-145)?
A: Its GI50 is 32.2 µM (inactive).

Q: What about the GI50 (HCC 2998) of the same compound?
A: The GI50 was 16.5 µM (inactive).

Q: And the GI50 (HCT-116)?
A: Its GI50 is 19.5 µM (inactive).

Q: And the GI50 (M14)?
A: Its GI50 is 19.1 µM (inactive).

Q: And the GI50 (MCF7)?
A: Its GI50 is 15.2 µM (inactive).

Q: And the GI50 (MDA-MB-231)?
A: Its GI50 is 14.1 µM (inactive).

Q: What about the GI50 (MDA-MB-435) of the same compound?
A: The GI50 was 18.5 µM (inactive).

Q: What about the GI50 (NCI/ADR-RES) of the same compound?
A: The GI50 was 14.9 µM (inactive).

Q: What about the GI50 (OVCAR-4) of the same compound?
A: Its GI50 is 3.66 µM (inactive).

Q: What about the GI50 (RPMI-8226) of the same compound?
A: Its GI50 is 11.7 µM (inactive).

Q: And the GI50 (SK-MEL-2)?
A: The GI50 was 28.8 µM (inactive).

Q: And the GI50 (SK-MEL-5)?
A: The GI50 was 16.3 µM (inactive).

Q: What about the GI50 (SNB-75) of the same compound?
A: Its GI50 is 0.634 µM (active).

Q: What about the GI50 (UO-31) of the same compound?
A: The GI50 was 27.7 µM (inactive).

Q: Which results are given for `CCCSc1ccc2[nH]c(N3C(=O)/C(=C/c4ccc(SC)cc4)N=C3c3ccccc3)cc2c1`?
A: GI50 (A498): 26.9 µM (inactive); GI50 (A549): 19.5 µM (inactive); GI50 (CAKI-1): 38.8 µM (inactive); GI50 (CCRF-CEM): 13.5 µM (inactive); GI50 (DU-145): > 50 µM (inactive); GI50 (HCC 2998): 14.1 µM (inactive); GI50 (HCT-116): 19.9 µM (inactive); GI50 (M14): 21.4 µM (inactive); GI50 (MCF7): 14.1 µM (inactive); GI50 (MDA-MB-231): > 50 µM (inactive); GI50 (MDA-MB-435): 5.05 µM (inactive); GI50 (NCI/ADR-RES): > 33 µM (inactive); GI50 (OVCAR-4): 19.6 µM (inactive); GI50 (RPMI-8226): 0.242 µM (active); GI50 (SK-MEL-28): 34.3 µM (inactive); GI50 (SK-MEL-2): 24.4 µM (inactive); GI50 (SK-MEL-5): 10.7 µM (inactive); GI50 (SNB-75): > 34.4 µM (inactive); GI50 (UO-31): > 35.8 µM (inactive)

Q: With `N#CCCN(CCC#N)c1ccc(C(=N/c2ccc(Cl)cc2)/N=N/c2ccccc2)cc1` as the compound, how does the GI50 (A498) read?
A: The GI50 was > 100 µM (inactive).

Q: What about the GI50 (A549) of the same compound?
A: The GI50 was 36.4 µM (inactive).

Q: What about the GI50 (CAKI-1) of the same compound?
A: Its GI50 is > 100 µM (inactive).

Q: What about the GI50 (CCRF-CEM) of the same compound?
A: The GI50 was > 100 µM (inactive).

Q: What about the GI50 (DU-145) of the same compound?
A: Its GI50 is 88.5 µM (inactive).

Q: What about the GI50 (HCC 2998) of the same compound?
A: Its GI50 is 26.6 µM (inactive).

Q: What about the GI50 (HCT-116) of the same compound?
A: Its GI50 is > 100 µM (inactive).

Q: What about the GI50 (M14) of the same compound?
A: Its GI50 is > 100 µM (inactive).

Q: What about the GI50 (MCF7) of the same compound?
A: The GI50 was > 100 µM (inactive).

Q: And the GI50 (MDA-MB-231)?
A: Its GI50 is > 100 µM (inactive).

Q: And the GI50 (MDA-MB-435)?
A: The GI50 was 44.9 µM (inactive).

Q: What about the GI50 (NCI/ADR-RES) of the same compound?
A: The GI50 was 36.3 µM (inactive).

Q: What about the GI50 (OVCAR-4) of the same compound?
A: The GI50 was 66.5 µM (inactive).

Q: And the GI50 (RPMI-8226)?
A: The GI50 was > 100 µM (inactive).

Q: And the GI50 (SK-MEL-28)?
A: The GI50 was > 100 µM (inactive).

Q: And the GI50 (SK-MEL-5)?
A: Its GI50 is 10.3 µM (inactive).

Q: What about the GI50 (SNB-75) of the same compound?
A: Its GI50 is 59.4 µM (inactive).

Q: What about the GI50 (UO-31) of the same compound?
A: The GI50 was 23.8 µM (inactive).

Q: For `O=C1CC2(CCNCC2)C(=O)N1N1CCOCC1`, which GI50 (A498) is on record?
A: The GI50 was > 100 µM (inactive).

Q: What about the GI50 (A549) of the same compound?
A: Its GI50 is > 100 µM (inactive).

Q: What about the GI50 (CAKI-1) of the same compound?
A: Its GI50 is > 100 µM (inactive).

Q: And the GI50 (CCRF-CEM)?
A: Its GI50 is > 100 µM (inactive).

Q: What about the GI50 (DU-145) of the same compound?
A: Its GI50 is > 100 µM (inactive).

Q: What about the GI50 (HCC 2998) of the same compound?
A: The GI50 was > 100 µM (inactive).

Q: And the GI50 (HCT-116)?
A: The GI50 was > 100 µM (inactive).

Q: And the GI50 (M14)?
A: The GI50 was > 100 µM (inactive).

Q: And the GI50 (MCF7)?
A: Its GI50 is > 100 µM (inactive).

Q: And the GI50 (MDA-MB-231)?
A: The GI50 was > 100 µM (inactive).

Q: What about the GI50 (NCI/ADR-RES) of the same compound?
A: The GI50 was > 100 µM (inactive).

Q: What about the GI50 (OVCAR-4) of the same compound?
A: Its GI50 is > 100 µM (inactive).

Q: What about the GI50 (RPMI-8226) of the same compound?
A: Its GI50 is > 100 µM (inactive).

Q: What about the GI50 (SK-MEL-28) of the same compound?
A: Its GI50 is > 100 µM (inactive).

Q: And the GI50 (SK-MEL-2)?
A: Its GI50 is > 100 µM (inactive).

Q: And the GI50 (SK-MEL-5)?
A: The GI50 was > 100 µM (inactive).

Q: And the GI50 (SNB-75)?
A: Its GI50 is > 100 µM (inactive).

Q: What about the GI50 (SR) of the same compound?
A: Its GI50 is > 100 µM (inactive).

Q: And the GI50 (UO-31)?
A: Its GI50 is > 100 µM (inactive).

Q: Which GI50 (A498) does the source give for `COc1c(Br)cc2ccccc2c1-c1c(OC)c(Br)cc2ccccc12` here?
A: Its GI50 is > 100 µM (inactive).

Q: What about the GI50 (A549) of the same compound?
A: The GI50 was > 100 µM (inactive).

Q: What about the GI50 (CAKI-1) of the same compound?
A: Its GI50 is > 100 µM (inactive).

Q: What about the GI50 (CCRF-CEM) of the same compound?
A: The GI50 was > 100 µM (inactive).

Q: What about the GI50 (DU-145) of the same compound?
A: The GI50 was > 100 µM (inactive).

Q: What about the GI50 (HCC 2998) of the same compound?
A: The GI50 was > 100 µM (inactive).

Q: What about the GI50 (M14) of the same compound?
A: The GI50 was > 100 µM (inactive).

Q: And the GI50 (MCF7)?
A: The GI50 was 49.9 µM (inactive).

Q: What about the GI50 (MDA-MB-231) of the same compound?
A: Its GI50 is > 100 µM (inactive).

Q: What about the GI50 (MDA-MB-435) of the same compound?
A: The GI50 was > 100 µM (inactive).

Q: And the GI50 (NCI/ADR-RES)?
A: Its GI50 is > 100 µM (inactive).

Q: What about the GI50 (OVCAR-4) of the same compound?
A: The GI50 was > 100 µM (inactive).

Q: What about the GI50 (RPMI-8226) of the same compound?
A: The GI50 was 80.5 µM (inactive).

Q: What about the GI50 (SK-MEL-28) of the same compound?
A: Its GI50 is > 100 µM (inactive).

Q: And the GI50 (SK-MEL-2)?
A: Its GI50 is > 100 µM (inactive).

Q: And the GI50 (SK-MEL-5)?
A: The GI50 was 67.5 µM (inactive).

Q: What about the GI50 (SNB-75) of the same compound?
A: The GI50 was > 100 µM (inactive).

Q: What about the GI50 (UO-31) of the same compound?
A: Its GI50 is > 100 µM (inactive).

Q: How did the GI50 (A498) turn out when `Cc1ccc(S(=O)(=O)NN=C2C(C)(C)CC2(C)C)cc1` was run?
A: The GI50 was > 100 µM (inactive).

Q: What about the GI50 (A549) of the same compound?
A: Its GI50 is > 100 µM (inactive).

Q: What about the GI50 (CAKI-1) of the same compound?
A: Its GI50 is > 100 µM (inactive).

Q: What about the GI50 (CCRF-CEM) of the same compound?
A: Its GI50 is 68.7 µM (inactive).

Q: And the GI50 (DU-145)?
A: The GI50 was > 100 µM (inactive).

Q: What about the GI50 (HCC 2998) of the same compound?
A: The GI50 was > 100 µM (inactive).

Q: And the GI50 (HCT-116)?
A: Its GI50 is > 100 µM (inactive).

Q: What about the GI50 (M14) of the same compound?
A: Its GI50 is > 100 µM (inactive).

Q: And the GI50 (MCF7)?
A: Its GI50 is > 100 µM (inactive).

Q: What about the GI50 (MDA-MB-231) of the same compound?
A: The GI50 was > 100 µM (inactive).

Q: What about the GI50 (MDA-MB-435) of the same compound?
A: The GI50 was > 100 µM (inactive).

Q: What about the GI50 (NCI/ADR-RES) of the same compound?
A: The GI50 was > 100 µM (inactive).

Q: And the GI50 (OVCAR-4)?
A: Its GI50 is > 100 µM (inactive).

Q: What about the GI50 (SK-MEL-28) of the same compound?
A: Its GI50 is > 100 µM (inactive).

Q: What about the GI50 (SK-MEL-2) of the same compound?
A: The GI50 was > 100 µM (inactive).

Q: And the GI50 (SK-MEL-5)?
A: The GI50 was > 100 µM (inactive).

Q: And the GI50 (SNB-75)?
A: Its GI50 is 17.3 µM (inactive).

Q: What about the GI50 (UO-31) of the same compound?
A: The GI50 was > 100 µM (inactive).
